The molecules below were run on cGAS activity in THP1 cells (assay: Cellular assay: ISRE-Gaussia luciferase reporter THP1 cells transfected with ISD (Interferon Stimulatory DNA)). Details: Homo sapiens, THP-1; ISRE-Gaussia luciferase reporter THP1 cells transfected with 2 μg/mL ISD, 16 hours; read-out: THP1-ISD (Inhibition of cGAS activity in THP1 cells, IC50).
Format: cell-based
Summary of the method: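 ISRE (5×)-Gaussia luciferase reporter THP1 cells (0.3×10^6/well) were pretreated with compound for 5 min, then lipofected with 2 μg/mL ISD or mock-transfected. For the specificity readout, cells instead received 2 μg/mL poly(I:C) or SeV at 50 Unit/mL. Supernatant luminescence was read after 16 h with coelenterazine, and IC50 was fitted from fold induction over mock.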
With CN1C(=O)S/C(=C\c2cc(OCc3cnc(Cl)nc3)c(O)cc2Br)C1=O [Ex93] the IC50 was 2.5 to 10 µM.
Molecule Nc1ncc(COc2cc(/C=C3\Sc4ncccc4C3=O)c(Br)cc2O)cn1 [Ex194] has an IC50 of at most 2.5 µM.
For CC(C)n1ccc(COc2cc(/C=C3\SC(=O)N(C)C3=O)c(Br)cc2O)cc1=O [Ex135], the IC50 was 2.5 to 10 µM.
Molecule CN1C(=O)S/C(=C\c2cc3c(Cc4cnc(N)nc4)c[nH]c3c(F)c2Br)C1=O [ExB43] has an IC50 of at least 10 µM.
For CN1C(=O)S/C(=C\c2cc(OCc3cnc(N)nc3C3CC3)c(O)cc2Br)C1=O [Ex171], the IC50 was 2.5 to 10 µM.
Work on CN1C(=O)S/C(=C\c2cc(OCc3ccc(N)nc3)c(O)cc2Br)C1=O [Ex131] yielded an IC50 of 2.5 to 10 µM.
Work on Cc1nc(N)ncc1COc1cc(/C=C2\SC(=O)N(C)C2=O)c(Br)c(F)c1O [Ex108] yielded an IC50 of at most 2.5 µM.
CN1C(=O)S/C(=C\c2cc(OCc3cnc(N)nc3)c(O)c(F)c2Br)C1=O [Ex81] showed an IC50 of at most 2.5 µM.
For CNc1ncc(COc2cc(/C=C3\SC(=O)N(C)C3=O)c(Br)cc2O)cn1 [Ex148], the IC50 was at most 2.5 µM.
For CC(C)C(=O)N1CCC(COc2cc(/C=C3\SC(=O)N(C)C3=O)c(Br)cc2O)CC1 [Ex87], the IC50 was 2.5 to 10 µM.
Work on CC(Oc1cc(/C=C2\SC(=O)N(C)C2=O)c(Br)c(F)c1O)c1cnc(Cl)nc1 (stereo not drawn) [ExA6] yielded an IC50 of 2.5 to 10 µM.
CN1C(=O)S/C(=C\c2cc(OCc3cnc(NCc4ccncc4)nc3)c(O)cc2Br)C1=O [Ex157] was tested, and the IC50 was 2.5 to 10 µM.
In the case of CN1C(=O)S/C(=C\c2cc(OCc3cncnc3N)c(O)cc2Br)C1=O [Ex141], the IC50 is reported as at most 2.5 µM.
O=C1/C(=C/c2cc(OCc3cnc(NCCO)nc3)c(O)cc2Br)Sc2ncccc21 [Ex196] was tested, and the IC50 was at most 2.5 µM.
Molecule CCC(Oc1cc(/C=C2\SC(=O)N(C)C2=O)c(Br)c(F)c1O)c1cnc(N)nc1 (stereo not drawn) [ExB44] has an IC50 of 2.5 to 10 µM.
With CN1C(=O)S/C(=C\c2cc(OCc3cn[nH]c3)c(O)cc2Br)C1=O [Ex92] the IC50 was at most 2.5 µM.
Work on Cc1nc(N)ncc1COc1cc(/C=C2\SC(=O)N(C)C2=O)c(Br)cc1O [Ex170] yielded an IC50 of at most 2.5 µM.
Molecule CNc1ncc(COc2cc(/C=C3\Sc4ncccc4C3=O)c(Br)c(F)c2O)cn1 [ExA1] has an IC50 of 2.5 to 10 µM.
In the case of Cc1ncc(COc2cc(/C=C3\Sc4ncccc4C3=O)c(Br)c(F)c2O)cn1 [ExA4], the IC50 is reported as at most 2.5 µM.

What follows are molecules tested against T1, recombinant cGAS (aa147-522) (Homo sapiens, UniProt Q8N884) (assay: In vitro assay for inhibition of cGAS activity (ATP consumption, Kinase Glo)). Details: 37° C. 20 minutes, read-out: Activity (Inhibition of cGAS enzyme activity in vitro, IC50).
T1 construct: recombinant cGAS (aa147-522); His6-SUMO (N, cleaved yes); made in house; host or cells: E. coli BL21/pLys
T1 sequence (Q8N884 147-522): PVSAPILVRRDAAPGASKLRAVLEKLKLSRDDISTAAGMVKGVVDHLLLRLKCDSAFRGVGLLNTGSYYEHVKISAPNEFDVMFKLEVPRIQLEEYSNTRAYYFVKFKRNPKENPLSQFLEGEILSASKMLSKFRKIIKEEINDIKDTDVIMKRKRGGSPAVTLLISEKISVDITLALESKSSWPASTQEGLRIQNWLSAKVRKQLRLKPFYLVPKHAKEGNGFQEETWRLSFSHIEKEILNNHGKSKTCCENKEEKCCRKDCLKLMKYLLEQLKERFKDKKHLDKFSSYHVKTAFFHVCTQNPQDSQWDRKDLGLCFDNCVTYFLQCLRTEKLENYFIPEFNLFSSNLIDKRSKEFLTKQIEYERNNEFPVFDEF
Format: biochemical
Summary of the method: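 Human cGAS (aa147-522) at 1.5 ng/μL incubated with serially diluted compound at 37° C for 20 min; remaining ATP read by Kinase Glo luminescence. IC50 from percent ATP consumption plotted against log compound concentration.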
CN1C(=O)S/C(=C\c2cc(OCc3cnc(Cl)nc3)c(O)cc2Br)C1=O [Ex93] was tested, and the IC50 was at most 0.5 µM.
Nc1ncc(COc2cc(/C=C3\Sc4ncccc4C3=O)c(Br)cc2O)cn1 [Ex194] was tested, and the IC50 was at most 0.5 µM.
Molecule CC(C)n1ccc(COc2cc(/C=C3\SC(=O)N(C)C3=O)c(Br)cc2O)cc1=O [Ex135] has an IC50 of 0.5 to 10 µM.
For CN1C(=O)S/C(=C\c2cc3c(Cc4cnc(N)nc4)c[nH]c3c(F)c2Br)C1=O [ExB43], the IC50 was at most 0.5 µM.
CN1C(=O)S/C(=C\c2cc(OCc3cnc(N)nc3C3CC3)c(O)cc2Br)C1=O [Ex171] was tested, and the IC50 was at most 0.5 µM.
For CN1C(=O)S/C(=C\c2cc(OCc3ccc(N)nc3)c(O)cc2Br)C1=O [Ex131], the IC50 was 0.5 to 10 µM.
Work on Cc1nc(N)ncc1COc1cc(/C=C2\SC(=O)N(C)C2=O)c(Br)c(F)c1O [Ex108] yielded an IC50 of at most 0.5 µM.
In the case of CN1C(=O)S/C(=C\c2cc(OCc3cnc(N)nc3)c(O)c(F)c2Br)C1=O [Ex81], the IC50 is reported as at most 0.5 µM.
For CNc1ncc(COc2cc(/C=C3\SC(=O)N(C)C3=O)c(Br)cc2O)cn1 [Ex148], the IC50 was at most 0.5 µM.
With CC(C)C(=O)N1CCC(COc2cc(/C=C3\SC(=O)N(C)C3=O)c(Br)cc2O)CC1 [Ex87] the IC50 was 0.5 to 10 µM.
CC(Oc1cc(/C=C2\SC(=O)N(C)C2=O)c(Br)c(F)c1O)c1cnc(Cl)nc1 (stereo not drawn) [ExA6] gave an IC50 of at most 0.5 µM.
CN1C(=O)S/C(=C\c2cc(OCc3cnc(NCc4ccncc4)nc3)c(O)cc2Br)C1=O [Ex157] gave an IC50 of at most 0.5 µM.
With CN1C(=O)S/C(=C\c2cc(OCc3cncnc3N)c(O)cc2Br)C1=O [Ex141] the IC50 was at most 0.5 µM.
Molecule O=C1/C(=C/c2cc(OCc3cnc(NCCO)nc3)c(O)cc2Br)Sc2ncccc21 [Ex196] has an IC50 of at most 0.5 µM.
In the case of CCC(Oc1cc(/C=C2\SC(=O)N(C)C2=O)c(Br)c(F)c1O)c1cnc(N)nc1 (stereo not drawn) [ExB44], the IC50 is reported as at most 0.5 µM.
In the case of CN1C(=O)S/C(=C\c2cc(OCc3cn[nH]c3)c(O)cc2Br)C1=O [Ex92], the IC50 is reported as at most 0.5 µM.
For Cc1nc(N)ncc1COc1cc(/C=C2\SC(=O)N(C)C2=O)c(Br)cc1O [Ex170], the IC50 was at most 0.5 µM.
CNc1ncc(COc2cc(/C=C3\Sc4ncccc4C3=O)c(Br)c(F)c2O)cn1 [ExA1] gave an IC50 of at most 0.5 µM.
With Cc1ncc(COc2cc(/C=C3\Sc4ncccc4C3=O)c(Br)c(F)c2O)cn1 [ExA4] the IC50 was at most 0.5 µM.

What follows are molecules tested on RIG-I-MAVS pathway (assay: Specificity assay: ISRE reporter THP1 cells infected with Sendai Virus (SeV)). Details: Homo sapiens, THP-1; ISRE-Gaussia luciferase reporter THP1 cells infected with Sendai Virus (SeV) at 50 Unit/mL.
Format: cell-based
Procedure: A reporter THP1 cell line harboring a gene encoding Gaussia Luciferase under the control of 5 tandem repeats of interferon-stimulated response elements (ISRE) was used to test inhibition of cGAS activity by synthetic compounds in human cells. These cells were plated on 96-well plates at 0.3×10^6/well and incubated with various concentrations of compounds or DMSO for 5 min, followed by transfection of 2 μg/mL of ISD (Interferon Stimulatory DNA, a 45 bp DNA oligo) or mock transfected using lipofectamine 2000 (Life Technology) method, according to manufacturer's instructions. 16 hours later, 15 μL of the media from each well is transferred to a new plate, 50 μL of solution containing 50 mM Hepes-NaOH, 50 mM NaCl, 10 mM EDTA, 1 μM of coeleanterazine was added to each well and luminescence was measured immediately. Fold increase in luminescence compared to mock transfection is plotted against concentrations of each compound, and IC50 is calculated using Graphpad. To evaluate the specificity of a compound, the same procedure was performed except that cells were transfected with 2 μg/mL poly(I:C) or infected with Sendai Virus (SeV) at 50 Unit/mL, which are known to activate the RIG-I-MAVS pathway. A specific inhibitory compound should inhibit interferon induction by DNA but have minimal effect on poly(I:C) or Sendai virus induced interferon reporter gene expression.
Molecule CN1C(=O)S/C(=C\c2cc(OCc3cnc(Cl)nc3)c(O)cc2Br)C1=O [Ex93] has an IC50 of at least 10 µM.
With Nc1ncc(COc2cc(/C=C3\Sc4ncccc4C3=O)c(Br)cc2O)cn1 [Ex194] the IC50 was at least 10 µM.
CC(C)n1ccc(COc2cc(/C=C3\SC(=O)N(C)C3=O)c(Br)cc2O)cc1=O [Ex135] was tested, and the IC50 was at least 10 µM.
CN1C(=O)S/C(=C\c2cc3c(Cc4cnc(N)nc4)c[nH]c3c(F)c2Br)C1=O [ExB43] gave an IC50 of at least 10 µM.
Molecule CN1C(=O)S/C(=C\c2cc(OCc3cnc(N)nc3C3CC3)c(O)cc2Br)C1=O [Ex171] has an IC50 of at least 10 µM.
CN1C(=O)S/C(=C\c2cc(OCc3ccc(N)nc3)c(O)cc2Br)C1=O [Ex131] gave an IC50 of 2.5 to 10 µM.
Molecule Cc1nc(N)ncc1COc1cc(/C=C2\SC(=O)N(C)C2=O)c(Br)c(F)c1O [Ex108] has an IC50 of at least 10 µM.
For CN1C(=O)S/C(=C\c2cc(OCc3cnc(N)nc3)c(O)c(F)c2Br)C1=O [Ex81], the IC50 was at least 10 µM.
Molecule CNc1ncc(COc2cc(/C=C3\SC(=O)N(C)C3=O)c(Br)cc2O)cn1 [Ex148] has an IC50 of at least 10 µM.
CC(C)C(=O)N1CCC(COc2cc(/C=C3\SC(=O)N(C)C3=O)c(Br)cc2O)CC1 [Ex87] showed an IC50 of at least 10 µM.
In the case of CC(Oc1cc(/C=C2\SC(=O)N(C)C2=O)c(Br)c(F)c1O)c1cnc(Cl)nc1 (stereo not drawn) [ExA6], the IC50 is reported as 2.5 to 10 µM.
In the case of CN1C(=O)S/C(=C\c2cc(OCc3cnc(NCc4ccncc4)nc3)c(O)cc2Br)C1=O [Ex157], the IC50 is reported as at least 10 µM.
CN1C(=O)S/C(=C\c2cc(OCc3cncnc3N)c(O)cc2Br)C1=O [Ex141] was tested, and the IC50 was at least 10 µM.
O=C1/C(=C/c2cc(OCc3cnc(NCCO)nc3)c(O)cc2Br)Sc2ncccc21 [Ex196] was tested, and the IC50 was at least 10 µM.
CCC(Oc1cc(/C=C2\SC(=O)N(C)C2=O)c(Br)c(F)c1O)c1cnc(N)nc1 (stereo not drawn) [ExB44] gave an IC50 of at least 10 µM.
CN1C(=O)S/C(=C\c2cc(OCc3cn[nH]c3)c(O)cc2Br)C1=O [Ex92] gave an IC50 of at least 10 µM.
Cc1nc(N)ncc1COc1cc(/C=C2\SC(=O)N(C)C2=O)c(Br)cc1O [Ex170] gave an IC50 of at least 10 µM.
CNc1ncc(COc2cc(/C=C3\Sc4ncccc4C3=O)c(Br)c(F)c2O)cn1 [ExA1] showed an IC50 of at least 10 µM.
With Cc1ncc(COc2cc(/C=C3\Sc4ncccc4C3=O)c(Br)c(F)c2O)cn1 [ExA4] the IC50 was at least 10 µM.

— patent US12065416B2, “cGAS antagonist compounds” (IMMUNESENSOR THERAPEUTICS, INC., priority 2016, dated 2024)
